In US20230219912A1, “HALOGENATED BENZOTHIADIAZINES FOR THE TREATMENT OF CANCER” (BOARD OF REGENTS OF THE UNIVERSITY OF NEBRASKA, priority 2020, published 2023):
Several values for one entry are separate records, joined by “and”; a condition that tells them apart may be missing. Equal entries are not always repeated. Entries after “also recorded” stand apart in the source; their conditions may differ. Where two headings read alike, the source gives them in different places.

Assays:
[1] = tested on: Mitochondrial respiratory complex II (CII); conditions: literature, cited from earlier work
[2] = tested on: MDA-MB-468 triple negative breast cancer cells; test: MTS cytotoxicity assay in MDA-MB-468 triple negative breast cancer cells; format: cell-based; conditions: Homo sapiens, MDA-MB-468; 72 hours; mean ± SD n = 3
Procedure: The assay was performed as follows.
Derivatives were dosed at 10, 50 and 100 μM for 24, 48 and 72 hours and cell viability measured by MTS assay (FIG. 5).

[3] = tested on: 22Rv1 prostate cancer cells; test: MTS cytotoxicity assay in 22Rv1 prostate cancer cells; conditions: Homo sapiens; for cytotoxicity at 100 µM: 22Rv1, 48 h, read-out: reduction of 22Rv1 cell viability
Procedure: (§1) The assay was performed as follows. To determine the cell growth inhibition ability of the synthesized compounds the (3-(4,5-dimethylthiazol-2-yl)-5-(3-carboxymethoxyphenyl)-2-(4-sulfophenyl)-2H-tetrazolium) (MTS) assay used according to the manufacturer's recommended protocol. Stock solutions of the synthesized compounds were prepared in DMSO. Cells were seeded at a density of 1×10^5 cells in 96-well plates. After 24 hours, cells were treated at the indicated concentrations of test compounds, limiting the final DMSO concentration to less than 1%. After incubation at 37° C. in an environment of 5% CO2 for 48-72 hours, 10 μL of MTS reagent (CellTiter 96© AQueous One Solution Reagent) was added to each well and incubated at the above mentioned conditions for 2-4 hr. Absorbance was recorded at 490 nm on a BioTek Synergy Mx multimode plate reader and the viability of cells were plotted as percentage of controls.

[4] = tested on: human embryonic kidney (HEK293) cells; test: MTS cytotoxicity assay in HEK293 cells; format: cell-based; conditions: 72 hours, mean ± SD n = 3
Procedure: as §1
Cytotoxicity was also evaluated by using the low tumorigenic HEK293 cells at 50 μM concentration.

[5] = biological target: T1, Mitochondrial respiratory complex II (Rattus norvegicus, UniProt P21913+Q641Z9+Q6PCT8+Q920L2); test: Mitochondrial respiratory complex II inhibition assay; format: biochemical; conditions: for inhibition at 100 µM: read-out: inhibition of CII
T1 construct: measured spectrophotometrically using isolated rat heart mitochondria; from tissue; host or cells: rat heart mitochondria / sub-mitochondrial particles
T1 sequence (Q920L2 35-656): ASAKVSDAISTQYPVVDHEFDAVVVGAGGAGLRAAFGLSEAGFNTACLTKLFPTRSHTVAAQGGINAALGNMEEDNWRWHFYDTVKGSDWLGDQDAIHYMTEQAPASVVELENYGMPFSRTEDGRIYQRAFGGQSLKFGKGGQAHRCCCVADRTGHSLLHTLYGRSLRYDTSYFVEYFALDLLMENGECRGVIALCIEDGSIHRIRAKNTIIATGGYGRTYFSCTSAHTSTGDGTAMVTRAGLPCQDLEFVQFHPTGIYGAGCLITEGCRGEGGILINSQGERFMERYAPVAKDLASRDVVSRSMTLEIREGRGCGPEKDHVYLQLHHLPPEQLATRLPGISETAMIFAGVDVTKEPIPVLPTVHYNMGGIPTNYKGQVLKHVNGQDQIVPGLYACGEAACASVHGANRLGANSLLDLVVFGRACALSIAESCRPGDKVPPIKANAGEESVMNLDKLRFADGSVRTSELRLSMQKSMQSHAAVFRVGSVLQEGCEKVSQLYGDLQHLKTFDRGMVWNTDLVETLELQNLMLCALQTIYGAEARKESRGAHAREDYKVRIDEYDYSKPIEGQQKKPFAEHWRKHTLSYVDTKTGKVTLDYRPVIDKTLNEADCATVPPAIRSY
T1 sequence (P21913 31-282): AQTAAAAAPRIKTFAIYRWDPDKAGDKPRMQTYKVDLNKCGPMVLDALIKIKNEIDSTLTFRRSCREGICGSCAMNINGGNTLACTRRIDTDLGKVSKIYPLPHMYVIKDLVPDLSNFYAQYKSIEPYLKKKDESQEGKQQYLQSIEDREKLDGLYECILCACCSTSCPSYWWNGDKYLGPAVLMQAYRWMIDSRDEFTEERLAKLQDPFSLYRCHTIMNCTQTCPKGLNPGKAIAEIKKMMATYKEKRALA
T1 sequence (Q641Z9 1-169): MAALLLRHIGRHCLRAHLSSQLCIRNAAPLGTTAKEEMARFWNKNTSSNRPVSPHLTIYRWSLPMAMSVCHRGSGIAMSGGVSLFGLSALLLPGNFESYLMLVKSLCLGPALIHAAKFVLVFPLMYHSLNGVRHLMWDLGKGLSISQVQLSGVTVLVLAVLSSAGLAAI
T1 sequence (Q6PCT8 57-159): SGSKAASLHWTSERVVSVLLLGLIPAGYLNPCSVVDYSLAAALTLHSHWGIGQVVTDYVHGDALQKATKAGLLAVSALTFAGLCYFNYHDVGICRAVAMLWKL
Procedure: The assay was performed as follows. Mitochondria were isolated either from fresh rat hearts or by differential centrifugation in sucrose-based buffer as previously described.^24 Complex II enzymatic activity was determined spectrophotometrically as the rate of succinate-driven, co-enzyme Q2-linked reduction of dichlorophenolindophenol (DCPIP).^49 Mitochondria or sub-mitochondrial particles were incubated in phosphate buffer (pH 7.4) containing 40 μM DCPIP, 1 mM KCN, 10 μM rotenone, and 50 μM co-enzyme Q2. The rate of reduction of DCPIP to DCPIPH2 was followed at […] (ε=21,000 M-1). Varying amounts of succinate and inhibitors were used to determine an IC50 value. At the end of each run thenoyltrifluoroacetone (1 mM) was added and the residual TTFA-insensitive rate subtracted.

[6] = tested on: VEGF-induced proliferation of HUVEC cells; test: VEGF-induced HUVEC proliferation, MTT assay; format: cell-based, human; conditions: for inhibition of VEGF-induced HUVEC proliferation (in words): 20 μM; for inhibition at 20 µM: Homo sapiens, read-out: % Inhibition of Proliferation
Procedure: The assay was performed as follows. Vascular endothelial growth factor (VEGF, Cat #SRP3182) was purchased from Sigma. […] Stock solutions of all compounds were prepared in DMSO and were serially diluted for cell culture treatment maintaining the final DMSO concentration at less than 1%. Cell proliferation of HUVECs was evaluated through the MTT (3-[4, 5-dimethylthiazol-2-yl]-2, 5-dimethyltetrazolium bromide) colorimetric assay, as previously described.^28 The HUVECs were seeded at a density of 10,000 cells/well in 24 well plates in serum-containing medium and cultured overnight. Cells were starved with 300 μL of assay media (0.1% BSA+0.1% FBS in basal medium) for 24 h. Then, cells were treated with 500 μL of assay medium (control group), VEGF (10 ng/mL, positive control group) or VEGF along with compounds (20 μM). After 48 h of culture, 50 μL of MTT stock (5 mg/mL in PBS) was added to each well and incubated for 2 h at 37° C. to allow the formation of dark blue formazan crystals in the metabolically active cells. The medium was removed, the cells were washed with PBS (pH 7.4), and 100 μL of acidified isopropanol (0.33 mL HCl in 100 mL isopropanol) was added to each well and incubated for 5 min with thorough agitation to solubilize the formazan crystals. An equal volume of the solution was transferred to a 96-well plate and the absorbance was immediately measured using a microplate reader at a wavelength of 570 nm.

[7] = tested on: phosphorylated vascular endothelial growth factor receptor-2 (VEGFR2); test: Western blot of pVEGFR2 in VEGF-treated HUVEC cells; format: cell-based, human; conditions: 20 μM, VEGF 10 ng/mL, 5 min
Procedure: Cells were treated with test compounds (20 μM) along with VEGF (10 ng/mL) for 5 min. The DMSO was used as a negative control, whereas DMSO+VEGF was used as a positive control. Cells were lysed using RIPA buffer (10 mmol/L Tris-HCl, 1 mmol/L EDTA, 0.5 mmol/L EGTA, 1% Triton X-100, 0.1% sodium deoxycholate, 0.1% SDS and 140 mmol/L NaCl), supplemented with protease and phosphatase inhibitors (Halt Protease and Phosphatase Inhibitor). Cell lysates were centrifuged, and the supernatants were mixed with appropriate amount of 5×SDS loading buffer. Proteins were resolved on polyacrylamide gel and transferred onto nitrocellulose/PVDF membrane, blocked for 1 hour with 10% milk block prepared in 0.1% Tween 20 in 1×PBS (PBST), and treated with pVEGFR2 primary antibody at 4° C. overnight. The membrane was washed thrice with PBST, 5 minutes each, and treated with secondary antibody for 1 hour. The membrane was further washed three times, 5 minutes each, with PBST and developed using chemiluminescence, and the bands were analyzed using densitometry.

[8] = 100 μM, relative to DMSO control
[9] = HUVEC, 48 h, 20 μM compound, VEGF 10 ng/mL, HUVEC, 48 h, relative to VEGF treated cells, mean ± SEM n = 3

| Structure (SMILES) | IC50 [2] [µM] | IC50 [4] [µM] | inhibition of VEGF-induced HUVEC proliferation (in words) ([6]; VEGF 10 ng/mL) | inhibition at 20 µM [6, 9] [%] | further results |
| --- | --- | --- | --- | --- | --- |
| CCCCCC(=O)c1c(O)nc(OC)c(OC)c1O [AA5-16c, reference compound] | 6.71 ± 0.8 | 25.9 ± 2.4 |  |  | IC50 [1]: 0.064 µM; ligand-lipophilicity efficiency [1]: 5.62; cytotoxicity at 20 µM ([3]; 22Rv1, read-out: reduction of 22Rv1 cell viability): 60% |
| COc1[nH]c(=O)c(C(=O)[C@@H](C)C[C@H](C)[C@@H](Cl)CCl)c(O)c1OC [Atpenin A5, reference compound] |  |  |  |  | inhibition of CII ([5]; 0.1 μM): 93%; IC50 ([5]; positive control, read-out: CII IC50): 0.0033 µM; IC50 [1]: 0.0033 µM; IC50 ([1]; listed as atpenin A5): 0.0036 to 0.01 µM |
| O=S1(=O)N=C(NCc2ccccc2)Nc2cc(Cl)ccc21 [Compound 21b, 3-(benzylamino)-6-chloro-4H-benzo[e][1,2,4]thiadiazine 1,1-dioxide] | 64.2 ± 14.2 | 102 ± 16.1 | suppressed HUVEC proliferation; also recorded: enhanced activity |  | inhibition of CII [5, 8]: inactive; inhibition at 100 µM [5, 8]: 0%; cytotoxicity at 100 µM [3]: ~35%; % Inhibition of Proliferation ([6]; 20 μM compound, VEGF 10 ng/mL, HUVEC, 48 h, relative to VEGF treated cells, mean ± SEM n = 3, 20 µM): 200±12% and 125±10% |
| O=S1(=O)N=C(NCCCc2ccccc2)Nc2cc(Cl)ccc21 [Compound 23b, 6-chloro-3-((3-phenylpropyl)amino)-4H-benzo[e][1,2,4]thiadiazine 1,1-dioxide] | 91.9 ± 16.8 | 111 ± 7.4 | suppressed HUVEC proliferation; also recorded: enhanced activity | 178 ± 8 | inhibition at 100 µM [5, 8]: 30%; cytotoxicity at 100 µM [3]: ~35% |
| CC(NC1=NS(=O)(=O)c2ccccc2N1)c1ccccc1 (centres unmarked) [Compound 24d, 3-((1-phenylethyl)amino)-4H-benzo[e][1,2,4]thiadiazine 1,1-dioxide] |  |  |  |  | attenuation of pVEGFR2 expression [7]: outperformed the parent compound; also recorded: most potent; cytotoxicity at 100 µM [3]: ~30% |
| O=S1(=O)N=C(NCc2ccc(F)cc2F)Nc2cc(Cl)ccc21 [Compound 29b, 6-chloro-3-((2,4-difluorobenzyl)amino)-4H-benzo[e][1,2,4]thiadiazine 1,1-dioxide] | 84.6 | 129 ± 12.2 | suppressed HUVEC proliferation; also recorded: enhanced activity | 167 ± 14 |  |
| O=S1(=O)N=C(NCc2ccc(OC(F)(F)F)cc2)Nc2ccc(Br)cc21 [Compound 30c, 7-bromo-3-((4-(trifluoromethoxy)benzyl)amino)-4H-benzo[e][1,2,4]thiadiazine 1,1-dioxide] |  |  |  |  | attenuation of pVEGFR2 expression [7]: outperformed the parent compound; inhibition at 100 µM [5, 8]: 21%; cytotoxicity at 100 µM [3]: 45% |
| O=S1(=O)N=C(NCc2ccccc2OC(F)(F)F)Nc2cc(Cl)ccc21 [Compound 43b, 6-Chloro-3-((2-(trifluoromethoxy)benzyl)amino)-4H-benzo[e][1,2,4]thiadiazine 1,1-dioxide] | 14.9 | 30.5 | suppressed HUVEC proliferation; also recorded: enhanced activity | 124 ± 4 |  |
| Cc1cccc(CNC2=NS(=O)(=O)c3cc(Cl)ccc3N2)c1 [Compound 58e, 7-Chloro-3-((3-methylbenzyl)amino)-4H-benzo[e][1,2,4]thiadiazine1,1-dioxide] |  |  | suppressed HUVEC proliferation; also recorded: enhanced activity |  | attenuation of pVEGFR2 expression [7]: outperformed the parent compound; inhibition at 20 µM ([6]; HUVEC, 48 h): 145 ± 6% |
| O=S1(=O)N=C(NC2CCCC2)Nc2ccc(Cl)cc21 [Compound 59e, 7-Chloro-3-(cyclopentylamino)-4H-benzo[e][1,2,4]thiadiazine 1,1-dioxide] |  |  | suppressed HUVEC proliferation; also recorded: enhanced activity | 133 ± 6 | attenuation of pVEGFR2 expression [7]: outperformed the parent compound; also recorded: most potent |
| O=S1(=O)N=C(NCCCc2ccccc2)Nc2ccc(Cl)cc21 [Compound 60e, 7-Chloro-3-((3-phenylpropyl)amino)-4H-benzo[e][1,2,4]thiadiazine 1,1-dioxide] |  | 30.9 | suppressed HUVEC proliferation; also recorded: enhanced activity | 92 ± 15 |  |
| COc1cccc(CNC2=NS(=O)(=O)c3cc(Cl)ccc3N2)c1 [Compound 62e, 7-Chloro-3-((3-methoxybenzyl)amino)-4H-benzo[e][1,2,4]thiadiazine 1,1-dioxide] |  |  | suppressed HUVEC proliferation; also recorded: enhanced activity |  | attenuation of pVEGFR2 expression [7]: outperformed the parent compound; also recorded: most potent; inhibition at 20 µM ([6]; HUVEC, 48 h): 96 ± 16% |
| O=S1(=O)N=C(NCc2ccc(F)cc2F)Nc2ccc(Cl)cc21 [Compound 63e, 7-Chloro-3-((2,4-difluorobenzyl)amino)-4H-benzo[e][1,2,4]thiadiazine 1,1-dioxide] | 45.5 | 58.9 ± 13.7 | suppressed HUVEC proliferation; also recorded: enhanced activity | 133 ± 12 |  |
| O=S1(=O)N=C(NCCCCc2ccccc2)Nc2ccc(Cl)cc21 [Compound 65e, 7-Chloro-3-((4-phenylbutyl)amino)-4H-benzo[e][1,2,4]thiadiazine 1,1-dioxide] |  | 23.4 | suppressed HUVEC proliferation; also recorded: enhanced activity | 116 ± 16 |  |
| O=C(O)CC(=O)O [Malonate] |  |  |  |  | IC50 [1]: 40 µM |
| CNC(=O)c1cc(Oc2ccc(NC(=O)Nc3ccc(Cl)c(C(F)(F)F)c3)cc2)ccn1 [Sorafenib, reference compound] | 7.31 ± 1.9 | 2.95 ± 0.1 |  |  |  |
| O=C(CC(=O)C(F)(F)F)c1cccs1 [Thenoyltrifluoroacetone] |  |  |  |  | IC50 [1]: 30 µM |
| Cc1c(C)c2c(c(C)c1OC(=O)CCC(=O)O)CC[C@@](C)(CCC[C@H](C)CCC[C@H](C)CCCC(C)C)O2 [α-Tocopheryl succinate] |  |  |  |  | IC50 [1]: 42 µM |
